Assay results taken from patent publication US10364247B2, “Preparation and use of novel protein kinase inhibitors” (Ruijin Hospital Affiliated to Shanghai Jiao Tong University …, priority 2015, dated 2019).

How the values were obtained:
Type in all cases: cell-based, murine
[1] = target: T1, BaF3-BCR/ABL (Homo sapiens, UniProt P00519); assay: Antiproliferative activity, kinase-dependent Ba/F3 cells (MTT/MTS); conditions: 48 hours, cell viability, read-out: BCR/ABL IC50
T1 construct: fused on or other part: P11274 (Breakpoint cluster region protein)
Method: (§1) Following up on the kinome data, the ability of compounds disclosed in the present invention to inhibit proliferation of cells that are dependent on selected protein kinases was tested. […] In addition, compounds were assayed to measure their capacity to inhibit TIE1, LYN, EML4-ALK, INSR and HCK kinases.
(§2) The murine cell line used is the BaF/3 cell line transformed with BCR/ABL cDNA (BaF/3-p210) or BCR/ABL-T315I mutant (Ba/F3-p210-T315I). These cells are maintained in RPMI/10% fetal calf serum (RPMI/FCS) supplemented with penicillin 50 μg/mL, streptomycin 50 μg/mL and L-glutamine […]. Untransformed BaF/3 cells (Wt-BaF/3) are similarly maintained with the addition of 15% of WEHI conditioned medium as a source of IL3.
(§3) Cells were seeded at a density of 20,000 cells/well into 96-well plates.
(§4) The background control wells to which media with no cells added and the vehicle control wells were included on each plate in triplicate. Cell viability was determined using MTT (Sigma, St. Louis, Mo., USA) and MTS (Promega, Madison, Wis., USA), according to the manufacturer's instructions. Results were analyzed using GraphPad Prism 5.0 (GraphPad Software, San Diego, Calif.) and IC50 values were calculated from cell viability dose-response curves and defined as the concentration of compound needed to reduce cell viability to 50% of a vehicle control (DMSO) (Table 3).

[2] = target: T2, BaF3-BCR/ABL-T315I (Homo sapiens, UniProt P00519, T315I, cells depend on it); assay: as above; conditions: 48 hours, cell viability, read-out: BCR/ABL T315I IC50
T2 construct: fused on or other part: P11274 (Breakpoint cluster region protein)
Method: as §1, §2, §3, §4

[3] = system: Wt-BaF3; assay: Parental Ba/F3 cell proliferation (CellTiter Glo); conditions: Mus musculus, parental BaF/3 cells, 48 hours
Method: as §2
(§5) The BaF/3 cell line transformed with oncogenic NRAS or KRAS (BaF/3-NRASD12 or BaF/3-KRASD12) and the parental BaF/3 cells were used to measure the abilities of compounds of the invention to suppress RAS transformation (Table 5). Cells were seeded at a density of 5000 cells/well into 96-well plates. […] The background control wells to which media with no cells added and the vehicle control wells were included on each plate in triplicate. Cell viability was determined using CellTiter Glo Assay (Promega) according to manufacture's instruction with a minor modification of diluting 1 part CellTiter Glo reagent to 4 parts phosphate buffered saline (PBS) before use. The luminescence value was read out by an Envision (PerkinElmer).

[4] = system: BaF3-NRASD12; assay: Oncogenic RAS dependent cell proliferation (CellTiter Glo); conditions: Mus musculus, BaF3-NRASD12 cells, 48 hours, read-out: NRas-BaF3 IC50
Method: as §5

[5] = system: BaF3-KRASD12; assay: as above; conditions: Mus musculus, BaF3-KRASD12 cells, 48 hours, read-out: KRas-BaF3 IC50
Method: as §5

[6] = target: T3, BaF3-EML4-ALK (Homo sapiens, UniProt Q9UM73); assay: Antiproliferative activity, kinase-dependent Ba/F3 cells (MTT/MTS); conditions: 48 hours, cell viability, read-out: EML4-ALK IC50
T3 construct: fused on or other part: Q9HC35 (Echinoderm microtubule-associated protein-like 4)
T3 sequence (Q9UM73 whole entry, change not shown, the tested form may be a part): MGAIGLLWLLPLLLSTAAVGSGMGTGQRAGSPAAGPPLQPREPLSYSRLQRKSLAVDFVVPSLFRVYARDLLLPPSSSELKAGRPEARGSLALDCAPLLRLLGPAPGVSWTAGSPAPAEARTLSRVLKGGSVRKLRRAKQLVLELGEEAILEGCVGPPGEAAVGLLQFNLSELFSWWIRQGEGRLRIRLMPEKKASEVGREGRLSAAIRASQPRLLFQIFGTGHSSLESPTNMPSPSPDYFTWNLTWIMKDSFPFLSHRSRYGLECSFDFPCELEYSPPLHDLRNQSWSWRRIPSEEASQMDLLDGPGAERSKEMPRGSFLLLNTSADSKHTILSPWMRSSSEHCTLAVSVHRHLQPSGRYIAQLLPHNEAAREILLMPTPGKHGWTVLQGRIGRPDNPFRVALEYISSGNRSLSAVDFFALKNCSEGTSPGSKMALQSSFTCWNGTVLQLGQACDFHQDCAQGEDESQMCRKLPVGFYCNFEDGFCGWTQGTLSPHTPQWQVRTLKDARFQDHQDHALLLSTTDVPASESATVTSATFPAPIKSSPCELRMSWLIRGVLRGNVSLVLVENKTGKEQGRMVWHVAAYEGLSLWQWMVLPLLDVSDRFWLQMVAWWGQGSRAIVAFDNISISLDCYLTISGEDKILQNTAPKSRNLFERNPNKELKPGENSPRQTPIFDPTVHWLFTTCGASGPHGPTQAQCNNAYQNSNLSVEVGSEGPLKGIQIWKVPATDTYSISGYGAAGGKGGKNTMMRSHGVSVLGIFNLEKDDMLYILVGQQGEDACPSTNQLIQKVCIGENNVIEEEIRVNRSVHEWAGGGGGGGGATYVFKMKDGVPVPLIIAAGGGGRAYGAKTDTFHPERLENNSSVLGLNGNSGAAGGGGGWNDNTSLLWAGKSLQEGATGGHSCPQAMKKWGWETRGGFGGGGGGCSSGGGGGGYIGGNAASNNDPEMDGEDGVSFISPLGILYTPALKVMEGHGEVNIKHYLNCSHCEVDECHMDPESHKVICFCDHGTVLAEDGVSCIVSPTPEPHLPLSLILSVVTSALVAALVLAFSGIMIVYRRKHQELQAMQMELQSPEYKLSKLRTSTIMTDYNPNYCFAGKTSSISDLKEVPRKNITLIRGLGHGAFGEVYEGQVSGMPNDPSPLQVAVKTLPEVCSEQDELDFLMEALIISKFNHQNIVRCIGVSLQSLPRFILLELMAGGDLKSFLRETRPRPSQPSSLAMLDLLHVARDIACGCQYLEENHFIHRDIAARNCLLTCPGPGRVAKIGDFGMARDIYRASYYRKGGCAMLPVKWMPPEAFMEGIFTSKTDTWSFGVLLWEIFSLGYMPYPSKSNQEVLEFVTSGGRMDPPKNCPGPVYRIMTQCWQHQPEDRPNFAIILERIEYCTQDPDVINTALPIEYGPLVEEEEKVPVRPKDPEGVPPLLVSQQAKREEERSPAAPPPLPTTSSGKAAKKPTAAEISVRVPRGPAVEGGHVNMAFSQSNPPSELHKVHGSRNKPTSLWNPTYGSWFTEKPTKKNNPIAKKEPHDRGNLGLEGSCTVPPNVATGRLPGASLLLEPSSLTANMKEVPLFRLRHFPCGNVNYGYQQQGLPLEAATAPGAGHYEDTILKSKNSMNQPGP
Method: as §1, §2, §3, §4
(§6) Cell proliferation assays of compounds of the invention against TIE1, LYN, EML4-ALK, INSR and Hck were conducted using identical methods as described above for BCR/ABL, except that BaF3-TEL-TIE1, BaF3-TEL-LYN, BaF3-EML4-ALK, BaF3-TEL-INSR, and BaF3-TEL-HCK are used instead of BaF3-BCR/ABL (Table 3 and 4).

[7] = target: T4, BaF3-TEL-LYN (Homo sapiens, UniProt P07948); assay: as above; conditions: 48 hours, cell viability, read-out: tel-LYN IC50
T4 construct: fused on or other part: P41212 (Transcription factor ETV6)
T4 sequence (P07948 whole entry, change not shown, the tested form may be a part): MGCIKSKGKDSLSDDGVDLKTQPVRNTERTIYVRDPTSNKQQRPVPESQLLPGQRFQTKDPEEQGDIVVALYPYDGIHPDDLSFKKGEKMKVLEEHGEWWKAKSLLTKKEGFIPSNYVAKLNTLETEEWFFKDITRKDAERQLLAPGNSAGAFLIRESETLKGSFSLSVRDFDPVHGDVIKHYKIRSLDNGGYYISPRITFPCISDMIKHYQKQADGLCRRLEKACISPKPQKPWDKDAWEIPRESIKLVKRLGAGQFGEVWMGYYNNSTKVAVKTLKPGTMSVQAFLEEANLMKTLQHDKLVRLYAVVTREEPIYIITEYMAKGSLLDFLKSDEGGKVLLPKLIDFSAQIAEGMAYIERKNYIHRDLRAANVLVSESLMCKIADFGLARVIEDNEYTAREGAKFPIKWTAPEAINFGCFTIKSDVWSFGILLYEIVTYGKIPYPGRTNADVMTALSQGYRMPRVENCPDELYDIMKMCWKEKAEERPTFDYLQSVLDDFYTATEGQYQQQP
Method: as §1, §2, §3, §4, §6

[8] = target: T5, BaF3-TEL-TIE1 (Homo sapiens, UniProt P35590); assay: as above; conditions: 48 hours, cell viability, read-out: tel-TIE1 IC50
T5 construct: fused on or other part: P41212 (Transcription factor ETV6)
T5 sequence (P35590 whole entry, change not shown, the tested form may be a part): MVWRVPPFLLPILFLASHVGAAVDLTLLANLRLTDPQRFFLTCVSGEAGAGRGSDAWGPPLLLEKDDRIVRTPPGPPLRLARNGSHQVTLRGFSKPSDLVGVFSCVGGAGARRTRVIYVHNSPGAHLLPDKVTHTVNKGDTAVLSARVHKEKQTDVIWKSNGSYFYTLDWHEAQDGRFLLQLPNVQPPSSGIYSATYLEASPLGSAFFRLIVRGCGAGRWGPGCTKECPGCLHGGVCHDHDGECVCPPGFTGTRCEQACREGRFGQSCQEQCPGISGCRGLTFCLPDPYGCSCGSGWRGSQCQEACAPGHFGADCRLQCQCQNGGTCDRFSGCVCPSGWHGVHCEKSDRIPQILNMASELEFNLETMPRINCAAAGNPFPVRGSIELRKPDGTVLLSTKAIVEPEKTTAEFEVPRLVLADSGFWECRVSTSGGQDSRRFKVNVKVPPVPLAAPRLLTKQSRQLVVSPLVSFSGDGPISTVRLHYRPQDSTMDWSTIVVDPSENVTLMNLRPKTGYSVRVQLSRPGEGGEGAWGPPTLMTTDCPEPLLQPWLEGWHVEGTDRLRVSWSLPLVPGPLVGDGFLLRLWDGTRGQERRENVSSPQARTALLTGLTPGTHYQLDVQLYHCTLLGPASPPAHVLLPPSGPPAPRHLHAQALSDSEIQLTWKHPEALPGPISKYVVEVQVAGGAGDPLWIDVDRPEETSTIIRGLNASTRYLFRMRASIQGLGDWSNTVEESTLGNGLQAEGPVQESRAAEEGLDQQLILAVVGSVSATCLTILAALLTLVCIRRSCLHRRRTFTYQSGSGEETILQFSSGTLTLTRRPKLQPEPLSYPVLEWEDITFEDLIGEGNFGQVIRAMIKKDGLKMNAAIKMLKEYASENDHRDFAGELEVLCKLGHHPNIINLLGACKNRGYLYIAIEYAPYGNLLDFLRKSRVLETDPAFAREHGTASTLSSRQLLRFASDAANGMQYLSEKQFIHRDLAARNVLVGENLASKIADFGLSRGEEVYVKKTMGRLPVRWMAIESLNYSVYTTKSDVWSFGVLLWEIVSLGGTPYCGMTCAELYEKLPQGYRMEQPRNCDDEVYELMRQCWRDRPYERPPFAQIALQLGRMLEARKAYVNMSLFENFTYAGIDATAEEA
Method: as §1, §2, §3, §4, §6

Structure (SMILES): Cc1ccc(NC(=O)c2cccc(C(F)(F)F)c2)cc1N1Cc2cnc(N[C@@H](C)CO)nc2N(C)C1 [IA-8, (S)—N-(3-(7-((1-hydroxypropan-2-yl)amino)-1-methyl-1,4-dihydropyrimido[4,5-d]pyrimidin-3(2H)-yl)-4-methylphenyl)-3-(trifluoromethyl)benzamide]
- GI50 [1]: 1.94 µM
- GI50 [2]: > 10 µM
- IC50 [3]: 17.9 µM
- IC50 [4]: 5.21 µM
- IC50 [5]: 7.57 µM
- GI50 [6]: 9.22 µM
- GI50 [7]: 2.5 µM
- GI50 [8]: 3.65 µM

Structure (SMILES): Cc1ccc(NC(=O)c2cccc(C(F)(F)F)c2)cc1N1Cc2cnc(Nc3ccc(N4CCN(C)CC4)nc3)nc2N(C)C1 [IA-14, N-(4-methyl-3-(1-methyl-7-((6-(4-methylpiperazin-1-yl)pyridin-3-yl)amino)-1,4-dihydropyrimido[4,5-d]pyrimidin-3(2H)-yl)phenyl)-3-(trifluoromethyl)benzamide]
- IC50 [3]: 3.67 µM
- IC50 [4]: 1.53 µM
- IC50 [5]: 1.46 µM

Structure (SMILES): Cc1ccc(NC(=O)c2cccc(C(F)(F)F)c2)cc1N1Cc2cnc(NCCc3c[nH]cn3)nc2N(C)C1 [IA-6, N-(3-(7-((2-(1H-imidazol-4-yl)ethyl)amino)-1-methyl-1,4-dihydropyrimido[4,5-d]pyrimidin-3(2H)-yl)-4-methylphenyl)-3-(trifluoromethyl)benzamide]
- GI50 [1]: 2.22 µM
- GI50 [2]: 4.45 µM
- IC50 [3]: 5.14 µM
- IC50 [4]: 5.5 µM
- IC50 [5]: 5.53 µM
- GI50 [6]: ~3.36 µM
- GI50 [7]: ~3.21 µM
- GI50 [8]: 3.7 µM

Structure (SMILES): CNc1ncc2c(n1)N(C)CN(c1cc(NC(=O)c3cccc(C(F)(F)F)c3)ccc1C)C2 [IA-3, N-(4-methyl-3-(1-methyl-7-(methylamino)-1,4-dihydropyrimido[4,5-d]pyrimidin-3(2H)-yl)phenyl)-3-(trifluoromethyl)benzamide]
- GI50 [1]: 1.04 µM
- GI50 [2]: > 10 µM
- IC50 [3]: 12.5 µM
- IC50 [4]: 11.5 µM
- IC50 [5]: 6.47 µM
- GI50 [6]: 6.34 µM
- GI50 [7]: 4.09 µM
- GI50 [8]: 5.47 µM

Structure (SMILES): Cc1ccc(Nc2ncc3c(n2)N(C)CN(c2cccc(NC(=O)c4cccc(C(F)(F)F)c4)c2)C3)cn1 [IC-5, N-(3-(1-methyl-7-((6-methylpyridin-3-yl)amino)-1,4-dihydropyrimido[4,5-d]pyrimidin-3(2H)-yl)phenyl)-3-(trifluoromethyl)benzamide]
- GI50 [1]: 0.94 µM
- GI50 [2]: > 10 µM
- IC50 [3]: 29.3 µM
- IC50 [4]: > 10 µM
- IC50 [5]: > 10 µM
- GI50 [6]: > 10 µM
- GI50 [7]: > 10 µM
- GI50 [8]: 9.29 µM

Structure (SMILES): Cc1ccc(N)cc1N1Cc2cnc(Nc3ccc(N4CCOCC4)nc3)nc2N(C)C1 [ID-6, 6-(5-amino-2-methylphenyl)-8-methyl-N-(6-morpholinopyridin-3-yl)-5,6,7,8-tetrahydropyrimido[4,5-d]pyrimidin-2-amine]
- GI50 [1]: 0.353 µM
- GI50 [2]: > 10 µM
- GI50 [6]: > 10 µM
- GI50 [7]: 2.31 µM
- GI50 [8]: 0.809 µM

Structure (SMILES): CONC(=O)c1ccc(C)c(N2Cc3cnc(Nc4ccc(C)nc4)nc3N(C)C2)c1 [IC-4, N-methoxy-4-methyl-3-(1-methyl-7-((6-methylpyridin-3-yl)amino)-1,4-dihydropyrimido[4,5-d]pyrimidin-3(2H)-yl)benzamide]
- GI50 [1]: 0.0631 µM
- GI50 [2]: > 10 µM
- IC50 [3]: > 10 µM
- IC50 [4]: > 10 µM
- IC50 [5]: > 10 µM
- GI50 [6]: > 10 µM
- GI50 [7]: > 10 µM
- GI50 [8]: > 10 µM

Structure (SMILES): Cc1ccc(Nc2ncc3c(n2)N(C)CN(c2cc(C(=O)Nc4cccc(C(F)(F)F)c4)ccc2C)C3)cn1 [IC-1, 4-methyl-3-(1-methyl-7-((6-methylpyridin-3-yl)amino)-1,4-dihydropyrimido[4,5-d]pyrimidin-3(2H)-yl)-N-(3-(trifluoromethyl)phenyl)benzamide]
- GI50 [1]: 0.00693 µM
- GI50 [2]: 0.196 µM
- IC50 [3]: 5.36 µM
- IC50 [4]: 1.57 µM
- IC50 [5]: 1.69 µM
- GI50 [6]: 1.65 µM
- GI50 [7]: 0.189 µM
- GI50 [8]: 0.0912 µM

Structure (SMILES): Cc1ccc(Nc2ncc3c(n2)N(C)CN(c2cc(C(=O)NCCO)ccc2C)C3)cn1 [IC-2, N-(2-hydroxyethyl)-4-methyl-3-(1-methyl-7-((6-methylpyridin-3-yl)amino)-1,4-dihydropyrimido[4,5-d]pyrimidin-3(2H)-yl)benzamide]
- GI50 [1]: 6.36 µM
- GI50 [2]: > 10 µM
- IC50 [3]: > 10 µM
- IC50 [4]: > 10 µM
- IC50 [5]: > 10 µM
- GI50 [6]: > 10 µM
- GI50 [7]: > 10 µM
- GI50 [8]: > 10 µM

Structure (SMILES): COc1ccc(NC(=O)c2cccc(C(F)(F)F)c2)cc1N1Cc2cnc(Nc3ccc(C)nc3)nc2N(C)C1 [IC-6, N-(4-methoxy-3-(1-methyl-7-((6-methylpyridin-3-yl)amino)-1,4-dihydropyrimido[4,5-d]pyrimidin-3(2H)-yl)phenyl)-3-(trifluoromethyl)benzamide]
- GI50 [1]: 0.387 µM
- GI50 [2]: 8 µM
- IC50 [3]: 22.8 µM
- IC50 [4]: 8.15 µM
- IC50 [5]: 10.3 µM
- GI50 [6]: ~9.03 µM
- GI50 [7]: ~8.23 µM
- GI50 [8]: 5.18 µM

Structure (SMILES): CN1CN(c2ccc(Cl)c(C(F)(F)F)c2)Cc2cnc(Nc3ccc(N4CCOCC4)nc3)nc21 [ID-1, 6-(4-chloro-3-(trifluoromethyl)phenyl)-8-methyl-N-(6-morpholinopyridin-3-yl)-5,6,7,8-tetrahydropyrimido[4,5-d]pyrimidin-2-amine]
- GI50 [2]: > 10 µM
- GI50 [6]: > 10 µM
- GI50 [7]: > 10 µM
- GI50 [8]: > 10 µM

Structure (SMILES): Cc1ccc(Nc2ncc3c(n2)N(C)CN(c2cc(NC(=O)c4cccc(C(F)(F)F)c4)ccc2Cl)C3)cn1 [IC-7, N-(4-chloro-3-(1-methyl-7-((6-methylpyridin-3-yl)amino)-1,4-dihydropyrimido[4,5-d]pyrimidin-3(2H)-yl)phenyl)-3-(trifluoromethyl)benzamide]
- GI50 [1]: 9 µM
- GI50 [2]: > 10 µM
- GI50 [6]: 9.73 µM
- GI50 [7]: 5.34 µM
- GI50 [8]: 6.85 µM

Structure (SMILES): Cc1ccc(C(F)(F)F)cc1N1Cc2cnc(Nc3ccc(N4CCOCC4)nc3)nc2N(C)C1 [ID-4, 8-methyl-6-(2-methyl-5-(trifluoromethyl)phenyl)-N-(6-morpholinopyridin-3-yl)-5,6,7,8-tetrahydropyrimido[4,5-d]pyrimidin-2-amine]
- GI50 [1]: 1.63 µM
- GI50 [2]: > 10 µM
- GI50 [6]: 8.24 µM
- GI50 [7]: 4.29 µM
- GI50 [8]: 4.43 µM

Structure (SMILES): CN1CN(c2cccc(C(F)(F)F)c2)Cc2cnc(Nc3ccc(N4CCOCC4)nc3)nc21 [ID-5, 8-methyl-N-(6-morpholinopyridin-3-yl)-6-(3-(trifluoromethyl)phenyl)-5,6,7,8-tetrahydropyrimido[4,5-d]pyrimidin-2-amine]
- GI50 [2]: > 10 µM
- GI50 [6]: > 10 µM
- GI50 [7]: 15 µM
- GI50 [8]: 6.17 µM

Structure (SMILES): CN1CN(c2ccc(Br)cc2F)Cc2cnc(Nc3ccc(N4CCOCC4)nc3)nc21 [ID-3, 6-(4-bromo-2-fluorophenyl)-8-methyl-N-(6-morpholinopyridin-3-yl)-5,6,7,8-tetrahydropyrimido[4,5-d]pyrimidin-2-amine]
- GI50 [1]: > 10 µM
- GI50 [2]: > 10 µM
- GI50 [6]: 20 µM
- GI50 [7]: 7.27 µM
- GI50 [8]: 4.55 µM

Structure (SMILES): CN1CN(c2ccc(F)c(Cl)c2)Cc2cnc(Nc3ccc(N4CCOCC4)nc3)nc21 [ID-2, 6-(3-chloro-4-fluorophenyl)-8-methyl-N-(6-morpholinopyridin-3-yl)-5,6,7,8-tetrahydropyrimido[4,5-d]pyrimidin-2-amine]
- GI50 [1]: > 10 µM
- GI50 [2]: > 10 µM
- GI50 [6]: > 10 µM
- GI50 [7]: 20.5 µM
- GI50 [8]: 11.8 µM
